Test results: PubChem BioAssay (NCI)
Several values for one entry are separate records, joined by “and”; a condition that tells them apart may be missing. Equal values may be shown once.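 Step 1: Grow cells in 96-well plates. Step 2: Expose to compound for 48 hours at 5 concentrations. Step 3: Interpolate endpoints linearly; if unreached, use highest concentration. GI50 is the concentration that inhibits growth by half. The concentration for full growth arrest is given as TGI.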

Experiments:
Test in all cases: inhibition of tumour cell growth, NCI panel, 48 h
UO-31 renal = test system: UO-31 renal
SW-620 colon = test system: SW-620 colon
SK-OV-3 ovarian = test system: SK-OV-3 ovarian
HCT-15 colon = test system: HCT-15 colon
SN12C renal = test system: SN12C renal
TK-10 renal = test system: TK-10 renal
HCT-116 colon = test system: HCT-116 colon
UACC-62 melanoma = test system: UACC-62 melanoma
SNB-19 CNS = test system: SNB-19 CNS
IGROV1 ovarian = test system: IGROV1 ovarian

Structure (SMILES)	TGI (UO-31 renal)	TGI (SW-620 colon)	TGI (SK-OV-3 ovarian)	TGI (HCT-15 colon)	TGI (SN12C renal)	TGI (TK-10 renal)	TGI (HCT-116 colon)	TGI (UACC-62 melanoma)	TGI (SNB-19 CNS)	TGI (IGROV1 ovarian)	GI50 (UO-31 renal)	GI50 (SW-620 colon)	GI50 (SK-OV-3 ovarian)	GI50 (HCT-15 colon)	GI50 (SN12C renal)	GI50 (TK-10 renal)	GI50 (HCT-116 colon)	GI50 (UACC-62 melanoma)	GI50 (SNB-19 CNS)	GI50 (IGROV1 ovarian)
CC1=C(/C=C/C(C)=C/C=C/C(C)=C/C(=O)O)C(C)(C)CCC1	> 74.7 µM	64.2 µM	> 100 µM	70.3 µM	72.1 µM	> 100 µM	64.2 µM	> 77.4 µM	> 84.6 µM	> 100 µM										
CC(=O)O[C@@]1(C)[C@@H](C)C(=O)O[C@@H]2CCN3CC=C(COC(=O)[C@]1(C)O)[C@H]23	> 100 µM	> 100 µM		> 100 µM		> 100 µM	> 100 µM	> 100 µM	> 100 µM	> 100 µM										
CC(C(N)C(=O)NC(C(=O)O)C1OC(n2ccc(=O)[nH]c2=O)C(O)C1O)C(O)c1ccc(O)cn1 (stereo unspecified)	> 100 µM	> 100 µM		> 100 µM	> 100 µM	> 100 µM	> 100 µM	> 100 µM	> 100 µM	> 100 µM										
OCCNc1nc(Nc2ccc(Cl)c(Cl)c2)nc2ccccc12	17.9 µM	16.2 µM	23.4 µM	9.34 µM	20.7 µM	27.9 µM	14.6 µM	23.5 µM	18.6 µM	20 µM	4.23 µM	4.02 µM	11 µM	2.84 µM	5.37 µM	14.3 µM	3.52 µM	10.9 µM	5.02 µM	5.14 µM
Cc1cccc2c1CCC21OC(=O)c2c1ccc1ccccc21 (stereo unspecified)	> 100 µM	> 100 µM	> 100 µM	> 100 µM	> 100 µM	> 100 µM	> 100 µM	> 100 µM	> 100 µM	> 100 µM										
CC(C)=CCC/C(C)=C\CCC1(C)OC(=O)C2CC21 (stereo unspecified)	> 100 µM	> 100 µM		> 100 µM	> 100 µM and 64.2 µM	> 100 µM	> 100 µM and 31.6 µM	> 100 µM	> 100 µM	> 100 µM and 37.2 µM		84.1 µM and 33.8 µM		83.8 µM and 24.7 µM	> 100 µM and 26.4 µM		52.3 µM and 16.6 µM	> 100 µM and 34.4 µM		> 100 µM and 18.2 µM
O=C(/C=C/C12c3ccccc3C(c3ccccc31)C1C(=O)NC(=O)C12)c1ccc(F)cc1 (stereo unspecified)	2.85 µM	4.59 µM	8.03 µM	4.2 µM	3.29 µM	6.43 µM	3.41 µM	3.48 µM	3.18 µM	5.9 µM	1.42 µM	2.12 µM	2.79 µM	1.66 µM	1.7 µM	2.69 µM	1.58 µM	1.68 µM	1.65 µM	2.09 µM
NC1=NN(c2ccccc2)C(=O)C1C(=O)C(=O)Nc1nccs1 (stereo unspecified)	> 100 µM	> 100 µM	> 100 µM	> 100 µM	> 100 µM	> 100 µM	> 100 µM	> 100 µM	> 100 µM	> 100 µM										
CSc1snc2sc3c(Cl)nnnc3c12	25.6 µM	16.1 µM	33.3 µM	24.9 µM	28.7 µM	30.9 µM	30.9 µM	29.2 µM	30.1 µM	37.3 µM										
O=[N+]([O-])c1cc(C(F)(F)F)ccc1Sc1ccc(C(F)(F)F)cc1[N+](=O)[O-]	> 100 µM	> 100 µM	> 100 µM	> 100 µM	> 100 µM	> 100 µM	> 100 µM	> 100 µM	> 100 µM	> 100 µM	34.8 µM	3.31 µM	7.65 µM	6.84 µM	7.7 µM	28.3 µM	3.68 µM	5.27 µM	70.2 µM	17.1 µM
COc1ccc2oc(C(=O)O)c3c2c1CCC3CCC(=O)O (stereo unspecified)	> 100 µM	> 100 µM	> 100 µM		> 100 µM	> 100 µM	> 100 µM	> 100 µM	> 100 µM	> 100 µM										
COc1ccc2c(c1)C(=O)/C(=C/c1ccc([N+](=O)[O-])o1)O2	2.46 µM	1.22 µM	> 29.9 µM	2.14 µM	4.36 µM	2.59 µM	1.22 µM	2.91 µM		3.58 µM	0.796 µM	0.459 µM	5.36 µM	0.613 µM	1.91 µM	1.05 µM	0.495 µM	1.36 µM	3.09 µM	1.02 µM
CCOC(=O)C1=C(C)N(Cc2ccc(Cl)cc2Cl)C2(O)C=CC(=O)C3=C(O)c4ccccc4C(=O)C312 (stereo unspecified)		> 100 µM	91.7 µM	13.5 µM	15.4 µM	10.8 µM	11.6 µM	18.9 µM	78.7 µM	> 100 µM		4.74 µM	17.4 µM	1.82 µM	3.39 µM	3.78 µM	3.19 µM	4.72 µM	9.02 µM	8.62 µM
NS(=O)(=O)c1ccc(N(/C=C/C(=O)C(F)(F)F)Cc2ccc(Cl)cc2)cc1	44.6 µM	> 100 µM	> 100 µM	87.2 µM	56.2 µM	55.8 µM	28.1 µM	45.3 µM	> 100 µM		15.8 µM	30.5 µM	36 µM	31.1 µM	21.1 µM	23.5 µM	14.7 µM	20.3 µM	41.9 µM	
Cn1c(N)nc(=O)c2c1N(C1OC(CO)C(O)C1O)CN2Cc1ccccc1 (stereo unspecified)	> 100 µM	> 100 µM	> 100 µM	> 100 µM	> 100 µM	> 100 µM	> 100 µM	> 100 µM	> 100 µM	> 100 µM										
CCOC(=O)c1cc(-c2ccccc2)[nH]c1N/N=C/c1ccc(Cl)cc1	> 100 µM	> 100 µM	> 100 µM	> 100 µM	> 100 µM	> 100 µM	> 100 µM	> 100 µM	> 100 µM	> 100 µM	73.6 µM	> 100 µM	> 100 µM	49.3 µM	> 100 µM	> 100 µM	47.6 µM	49.7 µM	> 100 µM	95.2 µM
